Legend:
[1] = Comparative solubility tests in water (10% aqueous dispersion mixed, filtered, dicyclanil determined in the filtrate by HPLC); assay type: physicochemical; conditions: laboratory mixer, 20 °C
Method: To document the unexpectedly low water solubility of the present salt, i.e. dicyclanil dodecylbenzenesulfonate, comparative solubility tests were carried out after 4 and 24 hours of mixing of 10% aqueous dispersion of the present salt, as well as free dicyclanil alone, in a laboratory mixer at 20 °C, after which the sample was filtered and the free/bound dicyclanil was determined in a filtrate by a HPLC method.

[2] = cited from earlier work

Compound | Solubility in water after 4 h of mixing [1] [%] | Solubility in water after 24 h of mixing ([1]; 24 h) [%] | solubility in water ([2]; at 20 °C) | solubility ([2]; in water, known dicyclanil salt) [%]
4,6-diamino-2-cyclopropylaminopyrimidine-5-carbonitrile dodecylbenzenesulfonate | 0.0490 | 0.0495 |  | 
N#Cc1c(N)nc(NC2CC2)nc1N [Technical dicyclanil TC 99.0%, 4,6-diamino-2-cyolopropylaminopyrimidine-5-carbonitrile] | 0.312 |  | approximately 0.3 % by weight | 
CS(=O)(=O)O.N#Cc1c(N)nc(NC2CC2)nc1N [salt with methanesulfonic acid] |  |  |  | > 5
